In patent US20240270762A1, “PENICILLIN-BINDING PROTEIN INHIBITORS” (priority 2021, published 2024):
≈ marks a conversion by molar mass, not a printed value. Read-outs that look alike come from different tables or passages of the source.

How the values were obtained:
[1] = test system: P. aeruginosa CDC-0110; assay: microbe, parasite or virus in culture; assay type: cell-based; details: Pseudomonas aeruginosa, CDC0110, read-out: Minimum inhibitory concentration, P. aeruginosa CDC-0110
[2] = test system: P. aeruginosa (ΔmexAB-oprM); assay: Broth microdilution MIC in iron-depleted CAMHB (IDM); assay type: cell-based; details: Pseudomonas aeruginosa; iron-depleted CAMHB (IDM); […]; read-out: Minimum inhibitory concentration, P. aeruginosa ΔmexAB-oprM
[3] = test system: P. aeruginosa ATCC 35151; assay: microbe, parasite or virus in culture; assay type: cell-based; details: Pseudomonas aeruginosa, ATCC35151, read-out: Minimum inhibitory concentration, P. aeruginosa ATCC 35151
[4] = test system: A. baumannii CDC-0036; assay: microbe, parasite or virus in culture; assay type: cell-based; details: Acinetobacter baumannii, CDC0036, read-out: MIC, A. baumannii CDC-0036
[5] = test system: N. gonorrhoeae WHO X; assay: Liquid broth MIC in Fastidious broth; details: Neisseria gonorrhoeae
[6] = test system: P. aeruginosa CDC-0090; assay: microbe, parasite or virus in culture; assay type: cell-based; details: Pseudomonas aeruginosa, CDC0090, read-out: Minimum inhibitory concentration, P. aeruginosa CDC-0090
[7] = test system: N. gonorrhoeae CDC-0197; assay: Liquid broth MIC in Fastidious broth; details: Neisseria gonorrhoeae
[8] = test system: N. gonorrhoeae WHO Q; assay: Liquid broth MIC in Fastidious broth; details: Neisseria gonorrhoeae
[9] = test system: A. baumannii ATCC 17978; assay: microbe, parasite or virus in culture; assay type: cell-based; details: Acinetobacter baumannii, ATCC17978, read-out: MIC, A. baumannii ATCC 17978
[10] = test system: B. humptydooensis ATCC BAA-2767; assay: microbe, parasite or virus in culture; assay type: cell-based; details: Burkholderia humptydooensis, ATCCBAA2767, read-out: Minimum inhibitory concentration (MIC), B. humptydooensis ATCC BAA-2767
[11] = test system: A. baumannii ATCC 19606; assay: microbe, parasite or virus in culture; assay type: cell-based; details: Acinetobacter baumannii, ATCC19606, read-out: MIC, A. baumannii ATCC 19606
[12] = test system: A. baumannii CDC-0045; assay: microbe, parasite or virus in culture; assay type: cell-based; details: Acinetobacter baumannii, CDC0045, read-out: MIC, A. baumannii CDC-0045
[13] = test system: B. thailandensis ATCC 700388; assay: microbe, parasite or virus in culture; assay type: cell-based; details: Burkholderia thailandensis, ATCC700388, read-out: Minimum inhibitory concentration (MIC), B. thailandensis ATCC 700388
[14] = test system: A. baumannii 1258916; assay: microbe, parasite or virus in culture; assay type: cell-based, Acinetobacter baumannii; details: Acinetobacter baumannii, 1258916, read-out: MIC, A. baumannii 1258916
[15] = test system: P. aeruginosa ATCC 27853; assay: microbe, parasite or virus in culture; assay type: cell-based; details: Pseudomonas aeruginosa, ATCC27853, read-out: Minimum inhibitory concentration, P. aeruginosa ATCC 27853
[16] = read-out: Minimum Inhibitory Concentration, WHO X
[17] = CDC0197, read-out: Minimum Inhibitory Concentration, CDC-0197
[18] = read-out: Minimum Inhibitory Concentration, WHO Q

| Structure (SMILES) | MIC [1] [µg/mL] | MIC [2] [µg/mL] | MIC [3] [µg/mL] | MIC [4] [µg/mL] | MIC [5, 16] [µg/mL] | MIC [6] [µg/mL] | MIC [7, 17] [µg/mL] | MIC [8, 18] [µg/mL] | MIC [9] [µg/mL] | MIC [10] [µg/mL] | MIC [11] [µg/mL] | MIC [12] [µg/mL] | MIC [13] [µg/mL] | MIC [14] [µg/mL] | MIC [15] [µg/mL] | MIC ([5]; read-out: Minimum Inhibitory Concentration (MIC), N. gonorrhoeae WHO X) [µg/mL] | MIC ([7]; CDC0197, read-out: Minimum Inhibitory Concentration (MIC), N. gonorrhoeae CDC-0197) [µg/mL] | MIC ([8]; read-out: Minimum Inhibitory Concentration (MIC), N. gonorrhoeae WHO Q) [µg/mL] |
| --- | --- | --- | --- | --- | --- | --- | --- | --- | --- | --- | --- | --- | --- | --- | --- | --- | --- | --- |
| O=C(NCCCN1CCN(C(=O)N[C@H](C(=O)N[C@H]2Cc3ccc(F)c(C(=O)O)c3OB2O)c2cc(F)c(O)c(O)c2Cl)C1=O)c1ccccc1 [Example 252, (R)-3-((S)-2-(3-(3-benzamidopropyl)-2-oxoimidazolidine-1-carboxamido)-2-(2-chloro-5-fluoro-3,4-dihydroxyphenyl)acetamido)-7-fluoro-2-hydroxy-3,4-dihydro-2H-benzo[e][1,2]oxaborinine-8-carboxylic acid] | > 128 | > 128 | 2 to 4 (≈ 2.79 to 5.59 µM) | > 128 | > 64 | > 128 | > 64 | > 64 | 8 to 16 (≈ 11.2 to 22.4 µM) | > 128 | > 128 | > 128 | > 128 | > 128 | > 128 |  |  |  |
| O=C(NCCN1CCN(C(=O)NC(C(=O)N[C@H]2Cc3ccc(F)c(C(=O)O)c3OB2O)c2cc(F)c(O)c(O)c2Cl)C1=O)c1ccncc1 (stereo partly drawn) [Example 245, (3R)-3-(2-(2-chloro-5-fluoro-3,4-dihydroxyphenyl)-2-(3-(2-(isonicotinamido)ethyl)-2-oxoimidazolidine-1-carboxamido)acetamido)-7-fluoro-2-hydroxy-3,4-dihydro-2H-benzo[e][1,2]oxaborinine-8-carboxylic acid] | < 1 | < 1 | < 1 | 2 to 4 (≈ 2.85 to 5.69 µM) |  | < 1 |  |  | < 1 | < 1 | < 1 | < 1 | 2 to 4 (≈ 2.85 to 5.69 µM) | < 1 | 2 to 4 (≈ 2.85 to 5.69 µM) | > 64 | > 64 | > 64 |
| O=C(NCCCS(=O)(=O)N1CCN(C(=O)NC(C(=O)N[C@H]2Cc3ccc(F)c(C(=O)O)c3OB2O)c2cc(F)c(O)c(O)c2Cl)C1=O)c1cccnc1 (stereo partly drawn) [Example 273, (3R)-3-(2-(2-chloro-5-fluoro-3,4-dihydroxyphenyl)-2-(3-((3-(nicotinamido)propyl)sulfonyl)-2-oxoimidazolidine-1-carboxamido)acetamido)-7-fluoro-2-hydroxy-3,4-dihydro-2H-benzo[e][1,2]oxaborinine-8-carboxylic acid] | < 1 | < 1 | < 1 | 2 to 4 (≈ 2.56 to 5.12 µM) | > 64 | < 1 | 16 to 32 (≈ 20.5 to 41 µM) | 16 to 32 (≈ 20.5 to 41 µM) | < 1 | 2 to 4 (≈ 2.56 to 5.12 µM) | < 1 | < 1 | 2 to 4 (≈ 2.56 to 5.12 µM) | < 1 | 2 to 4 (≈ 2.56 to 5.12 µM) |  |  |  |
| O=C(NCCCS(=O)(=O)N1CCN(C(=O)N[C@@H](C(=O)N[C@H]2Cc3ccc(F)c(C(=O)O)c3OB2O)c2cc(F)c(O)c(O)c2Cl)C1=O)c1cccc(O)c1 [Example 271, (R)-3-((R)-2-(2-chloro-5-fluoro-3,4-dihydroxyphenyl)-2-(3-((3-(3-hydroxybenzamido)propyl)sulfonyl)-2-oxoimidazolidine-1-carboxamido)acetamido)-7-fluoro-2-hydroxy-3,4-dihydro-2H-benzo[e][1,2]oxaborinine-8-carboxylic acid] | 8 to 16 (≈ 10.1 to 20.1 µM) | < 1 | < 1 | 2 to 4 (≈ 2.51 to 5.03 µM) | > 64 | 2 to 4 (≈ 2.51 to 5.03 µM) | 16 to 32 (≈ 20.1 to 40.2 µM) | 16 to 32 (≈ 20.1 to 40.2 µM) | < 1 | 2 to 4 (≈ 2.51 to 5.03 µM) | < 1 | < 1 | 8 to 16 (≈ 10.1 to 20.1 µM) | < 1 | 2 to 4 (≈ 2.51 to 5.03 µM) |  |  |  |
